Measurements: ChEMBL document CHEMBL1144681, “Fluorination of triptolide and its analogues and their cytotoxicity” (Bioorg Med Chem Lett, 2008)
Values after ≈ are worked out from the molar mass of the structure shown.

Key:
HT-29 = experiment: Cytotoxicity against human HT29 cells; format: functional, cell-based
A549 = experiment: Cytotoxicity against human A549 cells; format: functional, cell-based

With `CC(C)C1=C[C@]23O[C@H]2C[C@H]2C4=C(CC[C@]2(C)[C@@]32O[C@H]2[C@H]1F)C(=O)OC4` the IC50 (HT-29) was 210 ng/mL (≈ 0.606 µM) and the IC50 (A549) was 2200 ng/mL (≈ 6.35 µM).
`CC(C)[C@]1(F)O[C@H]2[C@@H]3O[C@]34[C@]3(O[C@H]3C[C@H]3C5=C(CC[C@@]34C)C(=O)OC5)[C@H]21` was tested, and the IC50 (HT-29) was 72 ng/mL (≈ 0.199 µM) and the IC50 (A549) was 997 ng/mL (≈ 2.75 µM).
Compound `CC(C)[C@]12O[C@@H]1[C@@H]1O[C@]13[C@]1(O[C@H]1C[C@H]1C4=C(CC[C@@]13C)C(=O)OC4)[C@@H]2F` has an IC50 (HT-29) of 0.06 ng/mL (≈ 0.000166 µM) and an IC50 (A549) of 0.42 ng/mL (≈ 0.00116 µM).
`CC(C)C1=C[C@]23O[C@H]2C[C@H]2C4=C(CC[C@]2(C)[C@@]32O[C@H]2[C@@H]1F)C(=O)OC4` gave an IC50 (HT-29) of 150 ng/mL (≈ 0.433 µM) and an IC50 (A549) of 1500 ng/mL (≈ 4.33 µM).
`CC(C)C1=C[C@]23O[C@H]2C[C@H]2C4=C(CC[C@]2(C)[C@@]32O[C@H]2[C@@H]1O)C(=O)OC4` showed an IC50 (HT-29) of 17 ng/mL (≈ 0.0494 µM) and an IC50 (A549) of 81 ng/mL (≈ 0.235 µM).
For `CC(C)[C@]12O[C@@H]1[C@@H]1O[C@]13[C@]1(O[C@H]1C[C@H]1C4=C(CC[C@@]13C)C(=O)OC4)[C@H]2F`, the IC50 (HT-29) was 0.24 ng/mL (≈ 0.000662 µM) and the IC50 (A549) was 3 ng/mL (≈ 0.00828 µM).
In the case of `CC(C)C(=O)[C@H]1[C@@H](O)[C@@H]2O[C@]23[C@]12O[C@H]2C[C@H]1C2=C(CC[C@@]13C)C(=O)OC2`, the IC50 (HT-29) is reported as 86 ng/mL (≈ 0.239 µM) and the IC50 (A549) is reported as greater than 1 ng/mL.
Work on `CC(C)[C@]12O[C@H]1[C@@H]1O[C@]13[C@]1(O[C@H]1C[C@H]1C4=C(CC[C@@]13C)C(=O)OC4)[C@H]2O` [EPITRIPTOIIDE] yielded an IC50 (HT-29) of 9.1 ng/mL (≈ 0.0252 µM) and an IC50 (A549) of 59 ng/mL (≈ 0.164 µM).
Compound `CC(C)[C@]12O[C@H]1[C@@H]1O[C@]13[C@]1(O[C@H]1C[C@H]1C4=C(CC[C@@]13C)C(=O)OC4)[C@@H]2O` [TRIPTOLIDE] has an IC50 (HT-29) of 0.1 ng/mL (≈ 0.000277 µM) and an IC50 (A549) of 1.3 ng/mL (≈ 0.00361 µM).
For `CC(C)[C@]12O[C@H]1[C@@H]1O[C@@]13[C@@]1(C)CCC4=C(COC4=O)[C@@H]1C[C@@H]1O[C@@]13C2=O` [TRIPTONIDE], the IC50 (HT-29) was less than 0.46 ng/mL and the IC50 (A549) was 3.5 ng/mL (≈ 0.00977 µM).
